Data set [1] is described as follows: pK by spectrophotometrical measurement. Particulars: for pK7 (2.): 7-OH; for pKX (2.): second OH, X = 5, 6 or 8. Format: physicochemical. An excerpt:
(§1) This difference can be strengthened by deliberate direction of the reaction conditions to such an extent that selective mono-O-substitution can be carried out with excellent yields. It has been confirmed by various measurements and calculations (PMR, CMR, UV-VLS spectrophotometrical and potentiometric acid-base titrations, pK determinations, "all valence" CNDO quantumchemical calculations. electrostatical potential map calculation) that the hydroxy group in position 7 is the most reactive while the hydroxy groups in positions 5, 6 and 8, respectively, are less reactive.
(2.) according to spectrophotometrical measurement).

A short description of data set [2]: pK by potentiometrical titration. Format: physicochemical. The following applies: 7-OH.
Text: as §1
(1.) is determined by potentiometrical titration and […]

Data set [3] concerns tomato root gall nematode (Meloidogyne incognita). Kind of data set: Tomato root gall nematode test (II. stage infective larvae, treated NGM agar plate). Format: in vivo. Particulars: 72 hours; for mortality at 200 µg/mL / mortality at 400 µg/mL: Meloidogyne incognita. As to the method:
(6) Root gall nematode The test is carried out on II. stage infective larvae, which are collected from the root of tomato plant, placed on a filter and incubated in sterile water at 25° C. The hatched larvae are collected every 24 hours and immediately placed onto the treated nutrient medium. As nutrient medium NGM agar plate free from bacterial is used. 0.5 ml of the acetoneous solution of the test compound is applied onto the surface of the plate in a Petri-dish. After the acetone has evaporated 5 μl of the larva suspension is applied onto each plate. After 72 hours the surviving and killed insects are counted.

The next data set has as its system insects. The following applies: compared with P2; listed as P3; cited from earlier work.
The test system of the next data set is Caenorhabditis elegans. In words: Caenorhabditis elegans test (treated NGM agar plate, young adults). It counts as in vivo. As to the method: (5) Caenorhabditis elegans 0.5 ml of the acetonous solution of the test compound is applied onto a NGM agar plate free from bacteria in a Petri dish. After the acetone has dried 25-30 young adults are placed on the plate. After 24 hours the surviving and killed insects are counted.

Data set [4] has as its system cotton bug (Dysdercus fasciatus). In words: Cotton bug test (topical application on II. stage larvae). Particulars: for AJH effect: adultoid symptoms. It counts as in vivo. As to the method: (1) Cotton bug test A dilution series is prepared from the test compound with acetone and 0.2 μl of each dilution is topically applied onto the back part of larvae of the II. stage of growth with the aid of a Hamiltion syringe. The active ingredient is absorbed through the cuticula. The animals are kept in a large glass and fed with cotton grains and water. After adult shedding the surviving insects are observed for eventual adultoid symptoms, the egg-reproduction and the development of the ovules is evaluated too. (Remark: in the cotton bug test 50 insects are used).

Data set [5] has as its system domestic fly (Musca domestica). Kind of data set: Domestic fly test (larvae in treated nutrient medium). Format: in vivo. Particulars: 0.1% related to milk, 0.05% related to total nutrient medium. As to the method: The fly larvae are grown on a nutrient medium of the following composition: 2 ml of milk; 2 ml of water; 2 g of wheat bran; 0.1 ml of saturated alcoholic nipagin solution.
The nutrient medium is filled into cylindrical glass vials (30×100 mm) and 25 fly larvae are raised in each vial. The test compound is dissolved in milk; the end concentration (related to milk) amounts to 0.1% which corresponds to 0.05% (related to the total nutrient medium). The solution of the active ingredient is admixed with the nutrient medium whereupon […] of domestic fly larvae of the I. stage are placed into each vial and the vials are closed with a hard cotton-wool stopper. The nymphs emerging from the larvae are collected in each vial, counted and kept in a Petri dish (diameter 25 mm) until flies hatch from the nymphs. The hatched flies are counted.

The next data set has as its system mustard beetle. In words: Mustard beetle test (sprayed mustard seedlings). The following applies: concentration 1%. It counts as in vivo. The procedure: Two weeks' old mustard seedlings are sprayed with a solution of 0.1 g of the test compound, 0.5 ml of dimethyl sulfoxide, and 10 μl of 50 EC composition in 10 ml of water. After the spray is dried, 20 mustard larvae of the II. stage are placed on each plant. The sprayed plants are charged every second day. The evaluation is based on the number of the imagos hatching from the nymphs.

Data set [6] has as its system cabbage butterfly (Pieris brassicae). Kind of data set: Cabbage butterfly test (sprayed cabbage seedlings). It counts as in vivo. Particulars: 50 EC, 0.1%; for pest or weed control at 0.1 %: Pieris brassicae, read-out: Killing rate of larvae. The procedure:
From the 50 EC of the test compound a diluted series is prepared with water and the host seedlings (cabbage) are sprayed with this composition until the spray runs down. The spray is allowed to dry whereupon 20 young larvae of the II. stage are placed on each treated plant and the seedlings are kept under so-called "long-day" illumination (18 hours of illumination and 6 hours of darkness). The nibbled plants are replaced by similarly sprayed plants if necessary. The killing rate of the insects, the growth rate of the larvae and the morphological deformations of the surviving nymphs and adults are registered.
In the 50 EC compositions the concentration of compounds 23 and 25 amounts to 0.01% and that of the other compounds to 0.1%.

Where [7] appears, read: 200 μg/ml, first test, read-out: mortality 1.
The mark [8] stands for this setting: 200 μg/ml, second test, read-out: mortality 2.
[9] abbreviates: 200 μg/ml, read-out: mortality Average.
Setting [10] is: 400 μg/ml, first test, read-out: mortality 1.
[11] abbreviates: 400 μg/ml, second test, read-out: mortality 2.
Where [12] appears, read: 400 μg/ml, read-out: mortality Average.
Setting [13] is: Caenorhabditis elegans, 24 h, read-out: Lethality.

Entries after “also recorded” stand apart in the source; their conditions may differ. Like-named read-outs stand apart in the source and are kept apart here.

With `CC1(C)CC(=O)c2ccc(O)c(O)c2O1` [8-OH 7-OH 4-H, 7,8-dihydroxy-2,2-dimethyl-4-chromanone], in [1], the “pK7 (2.)” value was found to be 7.2 and the “pKX (2.)” value was 11.6. Besides, the “pK7 (1.)” value in data set [2] came to 7.2.
In the case of `CCOc1cc2c(cc1OC)C=CC(C)(C)O2` [Compound 3, 6-methoxy-7-ethoxy-2,2-dimethyl-2H-chromene, reference compound], the Nematocidal effect entry in data set [3] (400 μg/ml) is “strong”. Also, the mortality at 200 µg/mL in [3] (setting [7]) was determined as 24%; in data set [3] (setting [8]), 20%; in data set [3] (setting [9]) it was 22%. Besides, the mortality at 400 µg/mL in [3] (setting [10]) was found to be 100%; in data set [3] (setting [11]) it was 95%; in data set [3] (setting [12]), 97%. Also, in the data set with insects, the “effectiveness/activity relative to P2” value is on record as “ten times more active; also recorded: ten times more effective”. In addition, the “Size of descendant population” value in the data set on Caenorhabditis elegans (200 μg/ml) is listed as “some descendants”; in the data set with Caenorhabditis elegans (400 μg/ml), “no descendants”. In data set [4], this compound returned an LD50 of 0.5 μg/insect. In data set [4], this compound yielded a Sterilizing effect of 10 μg/insect. Also, the AJH effect in data set [4] amounted to 10 μg/insect.
Take `CCC(C)Oc1cc2c(cc1OC)C=CC(C)(C)O2` (stereo not shown) [Compound 20]: in data set [4], the LD50 is 0.4 μg/insect and the AJH effect was found to be 0.1 μg/insect.
As for `COc1cc2c(cc1OC(C)C)OC(C)(C)C=C2` [Compound 8], the “Size of descendant population” value in the data set on Caenorhabditis elegans (200 μg/ml) is reported as “reduced”. For the same compound, in the data set on Caenorhabditis elegans (400 μg/ml), the “Size of descendant population” value is given as “no descendants”. In addition, in the data set on Caenorhabditis elegans (setting [13]), the mortality at 200 µg/mL amounted to 70% and the mortality at 400 µg/mL amounted to 80%. In data set [4], the LD50 is 0.45 μg/insect, the Sterilizing effect came out at 0.2 μg/insect and the AJH effect was 1 μg/insect.
Turning to `COc1cc2c(cc1OCC(C)C)OC(C)(C)C=C2` [Compound 21], the LD50 in [4] came out at 0.4 μg/insect.
Compound `CC(C)=CCOc1cc2c(cc1OCC=C(C)C)OC(C)(C)C=C2` [Compound 10] showed an LD50 in data set [4] of 0.6 μg/insect.
In the case of `CC1(C)CC(=O)c2c(O)cc(O)cc2O1` [5-OH 7-OH 4-OH, 5,7-dihydroxy-2,2-dimethyl-4-chromanone], in data set [1], the “pK7 (2.)” value was 7.0 and the “pKX (2.)” value is reported as 11.6. Further, the “pK7 (1.)” value in data set [2] was 7.4.
For the compound `Cc1cc(OCC(C)C)cc2c1C=CC(C)(C)O2` [Compound 42], in [5], the Survival adult amounted to 25.5% and the Survival nymph was 45.4%. Also, the “Survival, adults” value in the data set on mustard beetle is 27%. Further, the pest or weed control at 0.1 % in data set [6] came to 100%.
Regarding `CC1(C)CC(=O)c2cc(O)c(O)cc2O1` [6-OH 7-OH 4-H, 6,7-dihydroxy-2,2-dimethyl-4-chromanone], in [1], the “pK7 (2.)” value amounted to 6.9 and the “pKX (2.)” value is 11.4. Moreover, the “pK7 (1.)” value in data set [2] is 6.8.
Take `COc1c(OC(C)C)ccc2c1OC(C)(C)C=C2` [Compound 52]: in the data set with Caenorhabditis elegans (200 μg/ml), the “Size of descendant population” value was “reduced”. Also, the “Size of descendant population” value in the data set with Caenorhabditis elegans (400 μg/ml) is on record as “reduced”. Besides, in [5], the Survival adult was 0% and the Survival nymph worked out at 12%. In [6], the Survival adult turned out to be 32%, the Survival nymph was 36% and the pest or weed control at 0.1 % was determined as 64%.
In data set [5], `CCCOc1ccc2c(c1OC)OC(C)(C)C=C2` [Compound 51] had a Survival adult of 0% and a Survival nymph of 12%. Moreover, the “Survival, adults” value with mustard beetle came out at 45%. For the same compound, the pest or weed control at 0.1 % in data set [6] was 100%.
Turning to `COc1cc2c(cc1OC)OC(C)(C)C=C2` [Compound 1, 6,7-dimethoxy-2,2-dimethyl-2H-chromene, reference compound], the Nematocidal effect entry in [3] (200 μg/ml) and in [3] (400 μg/ml) was “strong” in each case. Further, the mortality at 200 µg/mL in [3] (setting [7]), in data set [3] (setting [8]) and in [3] (setting [9]) was 76% each time. For the same compound, the mortality at 400 µg/mL in data set [3] (setting [10]) was found to be 98%; in data set [3] (setting [11]) it was 95%; in data set [3] (setting [12]), 97%. In addition, the “Size of descendant population” value in the data set with Caenorhabditis elegans (200 μg/ml) and with Caenorhabditis elegans (400 μg/ml) was “no descendants” throughout. Moreover, in data set [4], the LD50 was determined as 0.6 μg/insect. The same compound gave a Sterilizing effect in data set [4] of 10 μg/insect. The AJH effect in [4] was 1 μg/insect.

The values are drawn from patent US4968819A, “Process for the preparation of chromene derivatives” (Alkaloida Vegyeszeti Gyar, priority 1983, dated 1990).
